Experimental findings from patent EP0533925A1, “OPTICAL ISOMER OF R-FORM OF DIPHENYL ETHER DERIVATIVE AND HERBICIDE CONTAINING THE SAME AS ACTIVE INGREDIENT” (TEIJIN LIMITED, priority 1990, dated 1991) are described below.

Assay type in all cases: in vivo
What all share (set-up): key: 0 means the state where the plants are as sound as before the application of the active compound; 1, 2, 3 and 4 mean varying degrees of the enfeebled state of the plants between 0 and 5; 1, 2, 3 and 4 mean varying degrees of the enfeebled state of the plants between 0 and 5; 1, 2, 3 and 4 mean varying degrees of the enfeebled state of the plants between 0 and 5; 1, 2, 3 and 4 mean varying degrees of the enfeebled state of the plants between 0 and 5; 5 is the state where the plants are withered or killed by application of the active compound

The test system of one experiment is Digitaria adscendens. The experiment is described as follows: Herbicidal activity, foliar application of single compounds (Test Examples 1 to 5). The conditions noted are these: 3 weeks after application. Here is the method:
(§1) In these examples, all parts means parts by weight, unless otherwise noted. The herbicidal activity was evaluated on a scale of 6 degrees. In other words, 0 means the state where the plants are as sound as before the application of the active compound, while 5 is the state where the plants are withered or killed by application of the active compound, and 1, 2, 3 and 4 mean varying degrees of the enfeebled state of the plants between 0 and 5.
(§2) The diphenyl ethers shown in Table 2 were added to 5000 parts of a mixture of acetone and water (1 : 1 by volume), and 2.6 parts of a nonionic surfactant (Sorpol 2680, tradename) was added to form a solution, so that the ether becomes the prescribed amount in each solution.
(§3) Seeds of plants were sown in the soil, cultivated for 2 to 3 weeks, after germination, then the plants were used for the tests.
(§4) The prepared solution was applied to these plants at the prescribed rate of application in total, then the plants were continuously cultivated for 3 weeks without applying the solution.
(§5) The alphabetical symbols in Tables 2 and 3 represent the following plants, respectively: a: Digitaria adscendens b: Setaria viridis c: Sorghum halepense d: Chenopodium album var. centrorubrum e: Amaranthus mangostanus f: Astragalus sinicus g: Abutilon theophrosti h: Solanum nigrum i: Xanthium strumarium j: Soybean; Glycine max k: Corn; Zea mays Table 2

In another experiment the test system is Xanthium strumarium. The description is as above. The following applies: 3 weeks after application. Here is the method:
as §1, §2, §3, §4, §5

The next experiment deals with Soybean; Glycine max. The experiment is described as above. The conditions noted are these: 3 weeks after application. Here is the method: as §1, §2, §3, §4, §5
For another experiment, the system named is Abutilon theophrosti. Briefly: Herbicidal activity, spray of diphenyl ether with N-phosphonomethylglycine derivative (Test Examples 6 to 10). The conditions noted are these: Application 0.375 Kg/ha (117) alone. Here is the method:
as §1
(§6) In each run, the diphenyl ether derivatives and the N-phosphonomethylglycine derivatives shown in Table 3 (in the indicated mixing ratios) was dissolved in 16 parts by volume of a mixture of water and acetone (1 : 1 by volume; containing 0.05 % of a nonionic surfactant, Sorpol-2680) in the indicated mixing ratio, respectively, to prepare spray solutions.
(§7) The plants tested were grown in vinyl resin pots (diameter 10 cm) filled with soil in a green house for 2 to 3 weeks after germination from seeds or tubers.
(§8) The spray solution was applied to the plants so that the total volume sprayed became 4 cc/100 cm², and the herbicidal activity was examined.
as §5

The test system of the next experiment is Setaria viridis. Described as above. The following applies: Application 0.375 Kg/ha (117) alone. Here is the method:
as §1, §6, §7, §8, §5

A further experiment concerns Solanum nigrum. Described as above. The conditions noted are these: Application 0.375 Kg/ha (117) alone. Here is the method: as §1, §6, §7, §8, §5
In a further experiment the test system is Amaranthus mangostanus. Described as above. The following applies: Application 0.375 Kg/ha (117) alone. Here is the method:
as §1, §6, §7, §8, §5

The next experiment deals with Corn; Zea mays. Described as above. The following applies: Application 0.375 Kg/ha (117) alone. Here is the method:
as §1, §6, §7, §8, §5

Where [1] appears, read: Rate of Application 0.016 kg/ha.
[2] abbreviates: Rate of Application 0.031 kg/ha.

Counter-ions that a name gives are not always drawn.

Regarding `COC(=O)C(C)Oc1cc(Oc2ccc(C(F)(F)F)cc2Cl)ccc1C#N` (stereo not drawn) [Compound (1), Methyl α-[2-cyano-5-(2-chloro-4-trifluoromethylphenoxy)phenoxy]propionate], the “herbicidal activity, Plants a” value with Digitaria adscendens (setting [1]) and with Digitaria adscendens (setting [2]) was 4 throughout. Also, the “herbicidal activity, Plants i” value with Xanthium strumarium (setting [1]) and with Xanthium strumarium (setting [2]) was 5 each time. The “herbicidal activity, Plants j” value with Soybean; Glycine max (setting [1]) and with Soybean; Glycine max (setting [2]) was 4 in each case.
Regarding `O=C(O)CNCP(=O)(O)O` [Compound (117), N-phosphonomethylglycine isopropylammonium salt], the “herbicidal activity, Plants g” value stood at 0 in the experiment with Abutilon theophrosti (3 days after treatment), 1 in the experiment on Abutilon theophrosti (7 days after treatment) and 1 in the experiment on Abutilon theophrosti (14 days after treatment). Further, the “herbicidal activity, Plants b” value in the experiment on Setaria viridis (3 days after treatment) is on record as 0; in the experiment on Setaria viridis (7 days after treatment) it was 0; in the experiment on Setaria viridis (14 days after treatment) it was 1. Also, the “herbicidal activity, Plants h” value in the experiment on Solanum nigrum (3 days after treatment), in the experiment on Solanum nigrum (7 days after treatment) and with Solanum nigrum (14 days after treatment) was 0 in each case. The “herbicidal activity, Plants e” value in the experiment on Amaranthus mangostanus (3 days after treatment), in the experiment with Amaranthus mangostanus (7 days after treatment) and with Amaranthus mangostanus (14 days after treatment) was 0 each time. The “herbicidal activity, Plants k” value in the experiment on Corn; Zea mays (3 days after treatment), in the experiment on Corn; Zea mays (7 days after treatment) and in the experiment on Corn; Zea mays (14 days after treatment) was 0 in each case.
